The IC50 is the concentration at which inhibition is half-maximal. A low value points to greater potency.

IC50 data for 33 molecules are collected here from patent US20240109868A1, “EP300/CBP MODULATOR, PREPARATION METHOD THEREFOR AND USE THEREOF” (Miracure Biotechnology Limited, priority 2022, published 2024).

One experiment deals with vCap Cell. The experiment in a line: vCap cell growth inhibition, CellTiter-Glo, 72 h. To be noted: Homo sapiens, VCaP, 72 h, vCap cells, 72 h culture. The class given is cell-based. Here is the method: 22RV1 or vCap cells were cultured in RPMI-1640 medium (10% fetal bovine serum and 100 units (per mL) of penicillin/streptomycin dual antibody were added to RPMI-1640) in a 37° C., 5% CO2 cell incubator. Cells at the logarithmic growth phase were inoculated onto a 96-well cell culture plate at 5×10^3 cells/100 μL/well and cultured overnight. Solutions of different concentrations of an active compound in DMSO were added, with the final concentration being 0.5% DMSO. The positive control was 1% TweeN2O, and the negative control was 0.5% DMSO. After 72 h of culture, an equal volume of CellTiter-Glo was added to each well, and the mixtures were mixed homogeneously by shaking for 2 min. The plate was let stand at room temperature for 10 min, and fluorescence signal values were read using a microplate reader. Data were analyzed using Prism 7.0 and graphs were generated. The values are shown as mean f SEM (N=2). […] The X-axis represents compound concentration (μM), and the Y-axis represents % inhibition.
(In general: Cellular ATP, detected with luciferase, serves as a proxy for viable cell number.)

Another experiment relates to 22Rv1 Cell. The experiment in a line: 22RV1 cell growth inhibition, CellTiter-Glo, 72 h. Type of experiment: cell-based. The conditions noted are these: Homo sapiens, 22Rv1, 72 h, 22RV1 cells, 72 h culture. In outline:
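Cells seeded at 5×10^3/well overnight in RPMI-1640/10% FBS, then exposed to compound (0.5% DMSO final) for 72 h at 37 °C.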

As to `CNC(=O)N1Cc2cc(-c3ccn(C)c(=O)c3)cc(N3CCCc4cc(-c5cnn(C)c5)c(C(F)F)cc43)c2C1` [Compound M001122], the 50% inhibitory concentration (IC50) in the experiment on vCap Cell and with 22Rv1 Cell was > 1000 nM throughout.

With `CNC(=O)N1CCc2cc(C3CCNC(=O)C3)cc(N3CCCc4cc(-c5cnn(C)c5)c(C(F)F)cc43)c2C1` (stereo not drawn) [Compound M001123], the half-inhibitory concentration (IC50) in the experiment on vCap Cell is < 1000 nM; in the experiment with 22Rv1 Cell it was > 1000 nM.

With `CNC(=O)N1CCc2cc(C3CCN(C)C(=O)C3)cc(N3CCCc4cc(-c5cnn(C)c5)c(C(F)F)cc43)c2C1` (stereo not drawn) [Compound M001124, 8-(7-(difluoromethyl)-6-(1-methyl-1H-pyrazol-4-yl)-3,4-dihydroquinolin-1(2H)-yl)-N-methyl-6-(1-methyl-2-oxopiperidin-4-yl)-3,4H-dihydroisoquinoline-2(1H)-carboxamide], the IC50 in the experiment with vCap Cell and in the experiment on 22Rv1 Cell was < 1000 nM in each case.

Take `CNC(=O)N1CCc2cc(-c3ccn(C)c(=O)c3)cc(N3CCCc4cc(-c5cnn(C)c5)c(C(F)F)cc43)c2C1` [Compound M001125]: the half-inhibitory concentration (IC50) in the experiment on vCap Cell was < 1000 nM; in the experiment on 22Rv1 Cell, > 1000 nM.

Turning to `CC(=O)N1Cc2cc(C3CCN(C)C(=O)C3)cc(N3CCCc4cc(-c5cnn(C)c5)c(C(F)F)cc43)c2C1` (stereo not drawn) [Compound M001127], the concentration for half-maximal inhibition (IC50) with vCap Cell and in the experiment on 22Rv1 Cell was < 1000 nM throughout.

Take `CC(=O)N1Cc2cc(-c3ccn(C)c(=O)c3)cc(N3CCCc4cc(-c5cnn(C)c5)c(C(F)F)cc43)c2C1` [Compound M001128]: the IC50 in the experiment on vCap Cell and in the experiment with 22Rv1 Cell was > 1000 nM throughout.

Regarding `CNC(=O)N1C2CCC1CC(c1cc3c(c(N4CCCc5cc(-c6cnn(C)c6)c(C(F)F)cc54)c1)CN(C(C)=O)C3)C2` (stereo not drawn) [Compound M001129], the IC50 in the experiment on vCap Cell and in the experiment with 22Rv1 Cell was < 1000 nM throughout.

Take `COC(=O)N1C2CCC1CC(c1cc3c(c(N4CCCc5cc(-c6cnn(C)c6)c(C(F)F)cc54)c1)CN(C(C)=O)C3)C2` (stereo not drawn) [Compound M001132]: the half-maximal inhibitory concentration (IC50) is < 1000 nM in the experiment with vCap Cell and > 1000 nM with 22Rv1 Cell.

Take `CNC(=O)N1Cc2cc(C3CC4CCC(C3)N4C(=O)OC)cc(N3CCCc4cc(-c5cnn(C)c5)c(C(F)F)cc43)c2C1` (stereo not drawn) [Compound M001137]: the IC50 with vCap Cell and with 22Rv1 Cell was > 1000 nM in each case.

For the molecule `CC(=O)N1CCc2cc(C3CCNC(=O)C3)cc(N3CCCc4cc(-c5cnn(C)c5)c(C(F)F)cc43)c2C1` (stereo not drawn) [Compound M001142], the half-maximal inhibitory concentration (IC50) in the experiment on vCap Cell and with 22Rv1 Cell was > 1000 nM throughout.

Consider `CC(=O)N1CCc2cc(C3CCN(C)C(=O)C3)cc(N3CCCc4cc(-c5cnn(C)c5)c(C(F)F)cc43)c2C1` (stereo not drawn) [Compound M001143], for which the half-maximal inhibitory concentration (IC50) in the experiment with vCap Cell and in the experiment on 22Rv1 Cell was > 1000 nM throughout.

Take `CC(=O)N1CCc2cc(-c3ccn(C)c(=O)c3)cc(N3CCCc4cc(-c5cnn(C)c5)c(C(F)F)cc43)c2C1` [Compound M001144]: the IC50 with vCap Cell and in the experiment with 22Rv1 Cell was > 1000 nM in each case.

`CC(=O)N1CCc2cc(-c3cc[nH]c(=O)c3)cc(N3CCCc4cc(-c5cnn(C)c5)c(C(F)F)cc43)c2C1` [Compound M001153]: the IC50 in the experiment on vCap Cell and with 22Rv1 Cell was > 1000 nM each time.

With `CNC(=O)N1Cc2cc(-c3cc[nH]c(=O)c3)cc(N3CCCc4cc(-c5cnn(C)c5)c(C(F)F)cc43)c2C1` [Compound M001155], the 50% inhibitory concentration (IC50) with vCap Cell and with 22Rv1 Cell was > 1000 nM each time.

As for `CC(=O)N1Cc2cc(-c3cc[nH]c(=O)c3)cc(N3CCCc4cc(-c5cnn(C)c5)c(C(F)F)cc43)c2C1` [Compound M001156], the 50% inhibitory concentration (IC50) in the experiment on vCap Cell and in the experiment on 22Rv1 Cell was > 1000 nM in each case.

As for `CNC(=O)N1Cc2cc(C3CCN(C(C)=O)CC3)cc(N3CCCc4cc(-c5cnn(C)c5)c(C(F)F)cc43)c2C1` [Compound M001161], the concentration for half-maximal inhibition (IC50) in the experiment with vCap Cell was < 1000 nM; with 22Rv1 Cell, > 1000 nM.

Take `CNC(=O)N1Cc2cc(C3CCN(C(=O)C4CC4)CC3)cc(N3CCCc4cc(-c5cnn(C)c5)c(C(F)F)cc43)c2C1` [Compound M001162]: the IC50 with vCap Cell and in the experiment with 22Rv1 Cell was > 1000 nM each time.

Consider `CNC(=O)N1Cc2cc(C3CCN(C(=O)c4ccccc4)CC3)cc(N3CCCc4cc(-c5cnn(C)c5)c(C(F)F)cc43)c2C1` [Compound M001163], for which the half-inhibitory concentration (IC50) in the experiment on vCap Cell and with 22Rv1 Cell was > 1000 nM throughout.

In the case of `CN1CCC(c2cc3c(c(N4CCCc5cc(-c6cnn(C)c6)c(C(F)F)cc54)c2)CN(C(=O)C2CC2)C3)CC1=O` (stereo not drawn) [Compound M001164], the IC50 in the experiment with vCap Cell and with 22Rv1 Cell was > 1000 nM each time.

For `CNC(=O)N1CCc2cc(C3CCC(=O)N(C)C3)cc(N3CCCc4cc(-c5cnn(C)c5)c(C(F)F)cc43)c2C1` (stereo not drawn) [Compound M001170], the IC50 in the experiment with vCap Cell and in the experiment on 22Rv1 Cell was < 1000 nM throughout.

In the case of `CC(=O)N1Cc2cc(C3CCN(C(=O)c4cn(C)cn4)CC3)cc(N3CCCc4cc(-c5cnn(C)c5)c(C(F)F)cc43)c2C1` [Compound M001176], the IC50 in the experiment on vCap Cell and in the experiment on 22Rv1 Cell was < 1000 nM each time.

Take `CC(=O)N1CCc2cc([C@H]3CC[C@@H](O)CC3)cc(N3CCCc4cc(-c5cnn(C)c5)c(C(F)F)cc43)c2C1` [Compound M001178]: the IC50 in the experiment on vCap Cell and in the experiment on 22Rv1 Cell was > 1000 nM each time.

Turning to `CC(=O)N1CCc2cc([C@H]3CC[C@H](O)CC3)cc(N3CCCc4cc(-c5cnn(C)c5)c(C(F)F)cc43)c2C1` [Compound M001179], the IC50 in the experiment on vCap Cell and in the experiment on 22Rv1 Cell was > 1000 nM each time.

With `CNC(=O)N1CCc2cc(C3CCC(O)CC3)cc(N3CCCc4cc(-c5cnn(C)c5)c(C(F)F)cc43)c2C1` (stereo not drawn) [Compound M001180], the results for the 50% inhibitory concentration (IC50) in the experiment with vCap Cell and in the experiment with 22Rv1 Cell were < 1000 nM and > 1000 nM, respectively.

With `CNC(=O)N1CCc2cc([C@H]3CC[C@H](O)CC3)cc(N3CCCc4cc(-c5cnn(C)c5)c(C(F)F)cc43)c2C1` [Compound M001181], the IC50 in the experiment with vCap Cell and in the experiment with 22Rv1 Cell was > 1000 nM throughout.

Regarding `CNC(=O)N1CCc2cc(C3CCOCC3)cc(N3CCCc4cc(-c5cnn(C)c5)c(C(F)F)cc43)c2C1` [Compound M001184], the half-inhibitory concentration (IC50) is < 1000 nM with vCap Cell and > 1000 nM in the experiment with 22Rv1 Cell.

Regarding `CCN1CCC(c2cc3c(c(N4CCCc5cc(-c6cnn(C)c6)c(C(F)F)cc54)c2)CN(C(=O)NC)CC3)CC1=O` (stereo not drawn) [Compound M001186], the IC50 with vCap Cell and in the experiment on 22Rv1 Cell was < 1000 nM throughout.

`CNC(=O)N1CCc2cc(C3CCN(CCOC)C(=O)C3)cc(N3CCCc4cc(-c5cnn(C)c5)c(C(F)F)cc43)c2C1` (stereo not drawn) [Compound M001188]: the IC50 in the experiment with vCap Cell and in the experiment on 22Rv1 Cell was < 1000 nM each time.

As for `CCN1CCC(c2cc3c(c(N4CCCc5cc(-c6cnn(C)c6)c(C(F)F)cc54)c2)CN(C(C)=O)C3)CC1=O` (stereo not drawn) [Compound M001189], the IC50 in the experiment on vCap Cell and in the experiment with 22Rv1 Cell was < 1000 nM in each case.

In the case of `CNC(=O)N1Cc2cc([C@H]3CC[C@@H](O)CC3)cc(N3CCCc4cc(-c5cnn(C)c5)c(C(F)F)cc43)c2C1` [Compound M001192], the IC50 with vCap Cell and in the experiment on 22Rv1 Cell was > 1000 nM in each case.

Turning to `CNC(=O)N1Cc2cc([C@H]3CC[C@H](O)CC3)cc(N3CCCc4cc(-c5cnn(C)c5)c(C(F)F)cc43)c2C1` [Compound M001193], the IC50 in the experiment with vCap Cell and in the experiment with 22Rv1 Cell was > 1000 nM each time.

As for `CC(=O)N1Cc2cc([C@H]3CC[C@H](O)CC3)cc(N3CCCc4cc(-c5cnn(C)c5)c(C(F)F)cc43)c2C1` [Compound M001194], the IC50 in the experiment on vCap Cell is < 1000 nM; in the experiment with 22Rv1 Cell it was > 1000 nM.

`CC(=O)N1Cc2cc([C@H]3CC[C@@H](O)CC3)cc(N3CCCc4cc(-c5cnn(C)c5)c(C(F)F)cc43)c2C1` [Compound M001195]: the half-inhibitory concentration (IC50) with vCap Cell is < 1000 nM; in the experiment with 22Rv1 Cell, > 1000 nM.
